Assay results taken from patent publication US20250082931A1, “Treating Gastric Cancer Using TTFields Combined with XELOX, FOLFOX or the Individual Constituents Thereof” (Novocure GmbH, priority 2019, published 2025).

Key:
AGS cells [1] = test: Apoptosis analysis by Annexin V / 7AAD staining; assay type: cell-based
Description: (§1) After 72 h of treatment the media and the cells were collected, and cytotoxicity was determined by cell counts. Cells (including cells from the media) were stained for Annexin V and 7AAD for apoptosis analysis. For the testing of the clonogenic effect, cells were seeded for colonies.
(§2) Cells were seeded on inovitro dishes and petri dishes 24 h before starting the experiments. Media containing the indicated concentration of each chemotherapy component alone or FOLFOX and control media was added to the cells and the dishes were connected to TTFields (as in SOP-BI-009) or grown in 37° C., 5% CO2 for 72 h. Each treatment included 8 repeats (8 dishes). The media was replaced every 24 h. At the end of the experiment the cells were collected, and cytotoxicity was determined by cell counts, small number of cells were seeded for colonies and the cells (including cells from the media) were stained for Annexin V and 7AAD for apoptosis analysis.
(§3) Apoptotic effect: Average of cell fraction of each marker staining (Annexin V and 7AAD) of at least 5 dishes from each treatment was calculated in Excel software. The averages from these repeats was calculated to averages and is presented in stacked bar graph using GraphPed software.

KATO III cells [2] = test: Clonogenic effect (colonies count); conditions: for colonies count: 72 h, one experiment;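 for all read-outs here: after treatment, KATO III cells were reseeded and grown 6–14 days, then colonies were fixed, stained and counted, expressed as percent of untreated (no drug) control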
Description: After 72 h of treatment the media and the cells were collected, and cytotoxicity was determined by cell counts. […] For the testing of the clonogenic effect, cells were seeded for colonies.
After 6-14 days the colonies were fixed, stained and counted to determine clonogenic effect. The overall effect was calculated by multiplying the cytotoxic effect and the clonogenic effect.
Clonogenic effect: The colonies from each well were counted using ImageJ software. Average and standard deviation of colony number of at least 5 wells from each treatment were calculated in excel software. The averages from these repeats was calculated to averages and standard errors and is presented as percent from control (no drug treatment) in XY graph of points with error bars using GraphPed software. Significant was determine by 2-way ANOVA followed Multiple comparison using GraphPed software.

KATO III cells [3] = test: Apoptosis analysis by Annexin V / 7AAD staining; assay type: cell-based; conditions: for AnnV+ 7AAD+ cell fraction / AnnV+ 7AAD− cell fraction / AnnV− 7AAD+ cell fraction / AnnV− 7AAD− cell fraction: 72 h
Description: as §1, §2, §3

AGS cells [4] = test: Cytotoxic effect by cell count after 72 h, with and without TTFields
Description: (§4) During the treatment the media of all dishes was replaced every 24 h (“hours”).
(§5) After 72 h of treatment the media and the cells were collected, and cytotoxicity was determined by cell counts.
as §2
(§6) A TTFields generator (Inovitro systems) was used to apply the treatment to the cells.
(§7) Cytotoxic effect: Average and standard deviation of cell number of at least 5 dishes from each treatment was calculated in Excel software. The averages from these repeats was calculated to averages and standard error and is presented as percent from control (no drug treatment) in XY graph of points with error bars using GraphPed software. Significant was determine by 2-way ANOVA followed Multiple comparison using GraphPed software.

KATO III cells [5] = system: KATO III cells
Description: as §4, §5, §2, §6, §7

[6] = FOLFOX experiment, 5 uM, 72 h, + TTFields 150 kHz 1.0 V/cm
[7] = FOLFOX experiment, 5 uM, 72 h, no TTFields
[8] = 2.5 uM, + TTFields 150 kHz 1.6 V/cm, one experiment
[9] = 2.5 uM, no TTFields, one experiment
[10] = 5 uM, + TTFields 150 kHz 1.6 V/cm, one experiment
[11] = 5 uM, no TTFields, one experiment
[12] = 10 uM, + TTFields 150 kHz 1.6 V/cm, one experiment
[13] = 10 uM, no TTFields, one experiment
[14] = FOLFOX experiment, 10 uM, + TTFields 150 kHz 1.6 V/cm
[15] = FOLFOX experiment, 10 uM, no TTFields

For `Nc1nc2c(c(=O)[nH]1)N(C=O)C(CNc1ccc(C(=O)N[C@@H](CCC(=O)O)C(=O)O)cc1)CN2` (stereo partly drawn) [Leucovorin], the “AnnV+ 7AAD− cell fraction” value (AGS cells [1]; [6]) was 6.6%, the “AnnV− 7AAD+ cell fraction” value (AGS cells [1]; [6]) was 2.4% and the “AnnV− 7AAD− cell fraction” value (AGS cells [1]; [6]) was 80.7%. For the same molecule, the “AnnV+ 7AAD+ cell fraction” value (AGS cells [1]; [7]) was 4.3%, the “AnnV+ 7AAD− cell fraction” value (AGS cells [1]; [7]) was 5.3% and the “AnnV− 7AAD+ cell fraction” value (AGS cells [1]; [7]) was 2.6%. The “AnnV− 7AAD− cell fraction” value (AGS cells [1]; [7]) was 87.7%, the “apoptotic effect of drug alone” value (AGS cells [1]; without TTFields) was “does not show” and the colonies count (KATO III cells [2]; 2.5 uM, + TTFields 150 kHz 1.6 V/cm) was 60 % from control. For the same molecule, the colonies count (KATO III cells [2]; 2.5 uM, no TTFields) was 100 % from control, the colonies count (KATO III cells [2]; 5 uM, + TTFields 150 kHz 1.6 V/cm) was 68 % from control and the colonies count (KATO III cells [2]; 5 uM, no TTFields) was 79 % from control. For the same molecule, the colonies count (KATO III cells [2]; 10 uM, + TTFields 150 kHz 1.6 V/cm) was 62 % from control, the colonies count (KATO III cells [2]; 10 uM, no TTFields) was 91 % from control and the “clonogenic effect of drug alone” value (KATO III cells [2]; without TTFields) was “does not show”. For the same molecule, the “AnnV+ 7AAD+ cell fraction” value (KATO III cells [3]; [8]) was 18.45%, the “AnnV+ 7AAD− cell fraction” value (KATO III cells [3]; [8]) was 39.43% and the “AnnV− 7AAD+ cell fraction” value (KATO III cells [3]; [8]) was 0.3%. For the same molecule, the “AnnV− 7AAD− cell fraction” value (KATO III cells [3]; [8]) was 41.82%, the “AnnV+ 7AAD+ cell fraction” value (KATO III cells [3]; [9]) was 8.51% and the “AnnV+ 7AAD− cell fraction” value (KATO III cells [3]; [9]) was 24.86%. The “AnnV− 7AAD+ cell fraction” value (KATO III cells [3]; [9]) was 0.06%, the “AnnV− 7AAD− cell fraction” value (KATO III cells [3]; [9]) was 66.57% and the “AnnV+ 7AAD+ cell fraction” value (KATO III cells [3]; [10]) was 25.55%. For the same molecule, the “AnnV+ 7AAD− cell fraction” value (KATO III cells [3]; [10]) was 36.56%, the “AnnV− 7AAD+ cell fraction” value (KATO III cells [3]; [10]) was 0.2% and the “AnnV− 7AAD− cell fraction” value (KATO III cells [3]; [10]) was 37.69%. For the same molecule, the “AnnV+ 7AAD+ cell fraction” value (KATO III cells [3]; [11]) was 9.4%, the “AnnV+ 7AAD− cell fraction” value (KATO III cells [3]; [11]) was 36.5% and the “AnnV− 7AAD+ cell fraction” value (KATO III cells [3]; [11]) was 0.12%. For the same molecule, the “AnnV− 7AAD− cell fraction” value (KATO III cells [3]; [11]) was 53.98%, the “AnnV+ 7AAD+ cell fraction” value (KATO III cells [3]; [12]) was 28.48% and the “AnnV+ 7AAD− cell fraction” value (KATO III cells [3]; [12]) was 35.82%. The “AnnV− 7AAD+ cell fraction” value (KATO III cells [3]; [12]) was 0.4%, the “AnnV− 7AAD− cell fraction” value (KATO III cells [3]; [12]) was 35.3% and the “AnnV+ 7AAD+ cell fraction” value (KATO III cells [3]; [13]) was 12.64%. The “AnnV+ 7AAD− cell fraction” value (KATO III cells [3]; [13]) was 39.85%, the “AnnV− 7AAD+ cell fraction” value (KATO III cells [3]; [13]) was 1.01% and the “AnnV− 7AAD− cell fraction” value (KATO III cells [3]; [13]) was 46.5%. For the same molecule, the “AnnV+ 7AAD+ cell fraction” value (KATO III cells [3]; [14]) was 33.83%, the “AnnV+ 7AAD− cell fraction” value (KATO III cells [3]; [14]) was 18.24% and the “AnnV− 7AAD+ cell fraction” value (KATO III cells [3]; [14]) was 1.32%. For the same molecule, the “AnnV− 7AAD− cell fraction” value (KATO III cells [3]; [14]) was 46.62%, the “AnnV+ 7AAD+ cell fraction” value (KATO III cells [3]; [15]) was 24.39% and the “AnnV+ 7AAD− cell fraction” value (KATO III cells [3]; [15]) was 12.36%. The “AnnV− 7AAD+ cell fraction” value (KATO III cells [3]; [15]) was 0.80%, the “AnnV− 7AAD− cell fraction” value (KATO III cells [3]; [15]) was 62.46% and the “apoptotic effect of drug alone” value (KATO III cells [3]; without TTFields) was “does not show”. For the same molecule, the cell count (AGS cells [4]; 0.2 uM, + TTFields 150 kHz 1.0 V/cm) was 44 % from control, the cell count (AGS cells [4]; 0.2 uM, no TTFields) was 88 % from control and the cell count (AGS cells [4]; 1 uM, + TTFields 150 kHz 1.0 V/cm) was 46.5 % from control. For the same molecule, the cell count (AGS cells [4]; 1 uM, no TTFields) was 84 % from control, the cell count (AGS cells [4]; 5 uM, + TTFields 150 kHz 1.0 V/cm) was 45 % from control and the cell count (AGS cells [4]; 5 uM, no TTFields) was 77 % from control. For the same molecule, the cell count (AGS cells [4]; FOLFOX experiment, 5 uM, + TTFields 150 kHz 1.0 V/cm) was 59 % from control, the cell count (AGS cells [4]; FOLFOX experiment, 5 uM, no TTFields) was 83 % from control and the “cytotoxic effect of drug alone” value (KATO III cells [5]) was “does not show”.
